Measurements: patent publication US11464754B2, “Betaine for the prevention of obesity” (HOSPITAL SANT JOAN DE DEU, priority 2017, dated 2022)

How the values were obtained:
[1] = Betaine levels and composition of dam milk, and offspring plasma betaine, after maternal betaine supplementation during lactation; format: in vivo, mice
Protocol: All animal protocols were approved by the Institutional Animal Care and Use Committee of the University of Barcelona (Spain). Mice were housed on a 12-hour light-dark cycle with free access to food and water. Male and female ICR-CD1 mice (Envigo) were mated to obtain progeny. To minimize growth variability, litters were adjusted to 8 pups per dam at birth removing heaviest and lightest mice. Glycine betaine (1% wt/vol), ampicilin (1 g/L), and neomycin (0.5 g/L) (Sigma-Aldrich) were administered in water during lactation. After weaning, mice were housed 4 per cage and fed the 2014 Teklad diet (Envigo). […] To assess milk intake, pups were separated from dams for 2 hours and returned to their cages for 1 hour; difference in body weight before and after the feeding was expressed as grams per initial body weight per hour. […] Body composition was determined by using a 7.0T Bruker Biospect MRI system (Bruker Medical Gmbh, Germany). Indirect calorimetry was measured in metabolic cages (PhenoMaster/LabMaster, TSE Systems GmbH, Germany); O2, CO2, food intake, and locomotor activity were monitored for 48 hours, and data analyzed using 2-way ANOVA for repeated measures. […]
Mouse milk samples were diluted 1:3 before macronutrient analysis by mid-infrared spectroscopy in a Miris Analyzer (Miris AB). […] Plasma insulin was determined by ELISA (Millipore). […]

ICR-CD1 mice [2] = test: Maternal betaine supplementation during lactation in mouse model of maternal obesity; format: in vivo
Protocol: (§1) All animal protocols were approved by the Institutional Animal Care and Use Committee of the University of Barcelona (Spain). Mice were housed on a 12-hour light-dark cycle with free access to food and water. Male and female ICR-CD1 mice (Envigo) were mated to obtain progeny. To minimize growth variability, litters were adjusted to 8 pups per dam at birth removing heaviest and lightest mice. Glycine betaine (1% wt/vol), ampicilin (1 g/L), and neomycin (0.5 g/L) (Sigma-Aldrich) were administered in water during lactation. After weaning, mice were housed 4 per cage and fed the 2014 Teklad diet (Envigo). For diet-induced obesity, a high-fat diet (HFD, 45% kcal from fat) was provided (D12451, Research Diets). For maternal obesity studies, 6-week-old females were fed HFD for 8 weeks before mating; this same diet was maintained through pregnancy and lactation. To assess milk intake, pups were separated from dams for 2 hours and returned to their cages for 1 hour; difference in body weight before and after the feeding was expressed as grams per initial body weight per hour. For milk harvesting, samples were collected manually under anesthesia (pentobarbital, 40 mg/kg) at day 14 after birth; dams and pups were sacrificed after milk collection, and cecal content obtained for microbiome studies. Body composition was determined by using a 7.0T Bruker Biospect MRI system (Bruker Medical Gmbh, Germany). Indirect calorimetry was measured in metabolic cages (PhenoMaster/LabMaster, TSE Systems GmbH, Germany); O2, CO2, food intake, and locomotor activity were monitored for 48 hours, and data analyzed using 2-way ANOVA for repeated measures. Intraperitoneal glucose (1.5 g/kg) and insulin (0.6 U/kg) tolerance test were performed after a 16 or 4 hour fast, respectively. Mice were anesthetized (intraperitoneal pentobarbital, 50 mg/kg) and sacrificed between 9-11 am.
To test whether betaine interacts with maternal obesity, betaine supplementation was performed during lactation in a mouse model of maternal obesity. Dams were fed a high-fat diet (HFD) for 8 weeks before mating, and randomly assigned to control (MO-C) or betaine treatment (MO-B) groups at delivery. Supplementation was performed as described above.
(§2) It was also investigated whether the above changes during early life translated into long-term metabolic improvements. Offspring was maintained on a chow diet after weaning and monitored up to 24 weeks of age. […] Consistent with lower adiposity, adipocyte size and inflammatory markers were decreased in male offspring from betaine-treated dams. […] Furthermore, basal insulin levels decreased by 40% in treatment compared to control group (p<0.05, FIG. 5D).

ICR-CD1 mice [3] = test: Diet-induced obesity (HFD for 16 weeks) in offspring of betaine-treated dams; format: in vivo
Protocol: as §1
(§3) Mouse milk samples were diluted 1:3 before macronutrient analysis by mid-infrared spectroscopy in a Miris Analyzer (Miris AB). Relative betaine concentrations were determined by liquid chromatography (Acquity UPLC BEH HILIC column, Waters) coupled to mass spectrometry (QqQ/MS 6490, Agilent). Plasma insulin was determined by ELISA (Millipore). Plasma MCP-1, IL-6 and PAI-1 were measured using Milliplex Map (EMD Millipore, Merck). Hepatic and fecal triglycerides were quantified in chloroform-methanol extracts from liver or feces (50 mg) using Triglyceride Assay Kit (Sigma-Aldrich).
It was then tested whether this early-life intervention protected against diet-induced obesity. To this end, 6-week-old offspring of lean control or betaine-treated dams were fed a HFD for 16 weeks (HF-C and HF-B groups, respectively). […] Supplementation ameliorated glucose tolerance (FIG. 6B), and decreased fasting glucose (Time 0, FIG. 6B) and insulin levels (FIG. 6C). Hepatic triglyceride accumulation was reduced by 30% in the HF-B group (p<0.05, FIG. 6D).

ICR-CD1 mice [4] = test: Maternal betaine supplementation during lactation, lean dams: offspring growth, adiposity and metabolism on chow diet; format: in vivo
Protocol: as §1, §3
(§4) Tissues were fixed by immersion in formalin, paraffin-embedded, and sections stained with hematoxylin/eosin. For WAT, adipocyte area was measured in 30 random microscopic fields per animal (10-20 cells/field). For ileum, cross-sectional cuts were stained with Periodic acid-Schiff (PAS) method. Ten villi per mouse from 5-6 sections were analyzed. Goblet cell number per villus was determined and expressed as number of cells per 100 μm. Analyses were performed using ImageJ by a researcher blinded to sample ID.
To study whether milk betaine modulates growth and obesity risk, we performed maternal supplementation experiments in mice exclusively during lactation. Dams were randomly assigned to control (C) or treatment (B, 1% betaine in water) groups the first day after delivery. Milk samples were collected at day 14 after birth from a subset of dams to determine betaine levels.
as §2

ICR-CD1 mice [5] = test: Intestinal epithelium and inflammatory markers in 6-week-old offspring of betaine-treated dams; format: in vivo
Protocol: as §1, §3
Total RNA from tissues was isolated with TRI Reagent (Sigma-Aldrich) and cDNA obtained with High-capacity cDNA kit (Applied Biosystems). qPCR was performed with SybrGreen (Takara Bio), using Hprt as housekeeping gene. Primer sequences are the following:
as §4
These changes were accompanied by decreased mRNA levels of inflammatory markers (Ccl2, TIr4, Cd11c) in epididymal white adipose tissue (eWAT, FIG. 4B).

[6] = adult male offspring, chow diet

## C[N+](C)(C)CC(=O)O [betaine, glycine betaine]
[1]; dam milk at day 14 after birth, 1% betaine in water during lactation, vs control
  increase of milk betaine content: 5 fold
[1]; fourteen-day-old offspring of betaine-treated dams
  increase of offspring plasma betaine: 1.8 fold
ICR-CD1 mice [2]; 6 weeks of age, MO-B vs MO-C
  fat mass: trend towards lower
ICR-CD1 mice [2]; MO-B vs MO-C
  milk intake: no differences
ICR-CD1 mice [2]; MO-B vs MO-C, obese dams
  offspring growth during lactation: moderated
ICR-CD1 mice [2]; adult male offspring
  basal insulin levels: decreased
  glucose tolerance: improved
ICR-CD1 mice [2]; [6]
  body weight and adiposity: lower
ICR-CD1 mice [3]; HF-B group vs HF-C, male mice
  reduction of hepatic triglyceride accumulation: 30%
ICR-CD1 mice [3]; HFD
  fecal lipid content: no differences
ICR-CD1 mice [3]; HFD, did not reach statistical significance
  cumulative food intake: modest numerical decrease
ICR-CD1 mice [3]; male and female offspring on HFD, HF-B vs HF-C
  body weight gain: lower
ICR-CD1 mice [3]; male mice on HFD
  insulin levels: decreased
ICR-CD1 mice [3]; male mice on HFD, 18 weeks of life
  glucose tolerance: ameliorated
ICR-CD1 mice [3]; male mice on HFD, Time 0
  fasting glucose: decreased
ICR-CD1 mice [4]; adult female offspring
  glucose tolerance: no effect
ICR-CD1 mice [4]; [6]
  adipocyte size and inflammatory markers: decreased
ICR-CD1 mice [4]; adult male offspring, treatment vs control group
  decrease of basal insulin levels: 40%
ICR-CD1 mice [4]; adult male offspring, week 20
  glucose tolerance: notable improvement
ICR-CD1 mice [4]; adult males
  blood glucose at each time point in insulin tolerance testing: significantly lower
ICR-CD1 mice [4]; adult males, insulin tolerance testing
  response to insulin administration: no difference
ICR-CD1 mice [4]; adult offspring, chow diet
  hepatic triglyceride accumulation: no significant effect
ICR-CD1 mice [4]; female offspring, chow diet
  body weight gain and eWAT weight: no effect
ICR-CD1 mice [4]; lean dams, 1% betaine in water
  offspring growth patterns during lactation: did not modulate
ICR-CD1 mice [4]; lean dams, pups at 1 week of age
  milk intake: did not modulate
ICR-CD1 mice [4]; male offspring at 6 weeks of age, vs control
  fat mass: decreased
ICR-CD1 mice [4]; male offspring, chow diet, 24 weeks
  eWAT weight: decreased
ICR-CD1 mice [4]; male offspring, chow diet, up to 24 weeks of age
  body weight gain throughout adulthood: lower
ICR-CD1 mice [4]; young mice
  glucose tolerance, food intake, energy expenditure, respiratory exchange ratio, activity levels: did not differ
ICR-CD1 mice [5]; six-week-old male offspring
  mRNA levels of inflammatory markers (Ccl2, Tlr4, Cd11c) in eWAT: decreased
ICR-CD1 mice [5]; six-week-old male offspring, p<0.05
  circulating levels of IL-6: decreased
ICR-CD1 mice [5]; six-week-old male offspring, p=0.08
  circulating levels of MCP-1: numerical decrease
ICR-CD1 mice [5]; six-week-old male offspring, p=0.25
  circulating levels of PAI-1: numerical decrease
ICR-CD1 mice [5]; six-week-old offspring
  expression of Ccl2 in brown adipose, liver, and skeletal muscle: decreased
  ileal Muc2 mRNA expression: increased
  ileal villi length: no differences
  increase of ileal goblet cell number: 1.3 fold
